The nature of the data set: log P by HPLC. It counts as physicochemical.
[1] abbreviates: HPLC, gradient method, acetonitrile/0.1% aqueous phosphoric acid, EEC directive 79/831 Annex V. A8.
[2] abbreviates: EEC directive 79/831 Annex V. A8 by HPLC (gradient method, acetonitrile/0.1% aqueous phosphoric acid).

For orientation: logP means the decadic logarithm of the partition coefficient of the neutral form, usually between octanol and water. The low end stands for lower lipophilicity, the high end for higher lipophilicity.

The structures appear in SMILES notation.

Under setting [1], `CON(C)c1c(-c2c(F)cccc2F)c(Cl)nc2nc(C)nn12` [compound 143] showed a logP of 2.54.

`CC(C)CNc1c(-c2ccc(F)cc2Cl)c(Cl)nc2nc(C3CC3)nn12` [compound 621] showed a logP under setting [1] of 3.9.

Under setting [1], `Cc1nc2nc(Cl)c(-c3ccc(Cl)cc3Cl)c(N3CCCCO3)n2n1` [compound 817] showed a logP of 3.67.

Take `Cc1nc2nc(Cl)c(-c3c(F)cc(F)cc3F)c(NC(C)C(F)(F)F)n2n1` (stereo not shown) [compound 12]: the logP under setting [1] stood at 3.01.

`Cc1nc2nc(Cl)c(-c3c(F)cc(F)cc3F)c(N(C)CC(C)C)n2n1` [compound 154] had a logP under setting [1] of 3.63.

Regarding `Cc1nc2nc(Cl)c(-c3ccccc3F)c(NOCc3cccc(C(F)(F)F)c3)n2n1` [compound 371], the logP under setting [2] was 3.38.

`Fc1cccc(F)c1-c1c(Cl)nc2nc(C3CC3)nn2c1NCC(F)F` [compound 763]: under setting [1], the log partition coefficient (logP) is reported as 2.72.

The molecule `Cc1nc2nc(Cl)c(-c3c(F)cccc3Cl)c(N3CC=CCC3)n2n1` [compound 265] came in with a logP under setting [2] of 3.33.

On to `Cc1nc2nc(Cl)c(-c3c(F)cccc3F)c(N3CCC(C)(C)CC3)n2n1` [compound 315], for which the logP under setting [2] came to 3.91.

The molecule `Fc1cc(F)c(-c2c(Cl)nc3nc(C(F)(F)F)nn3c2N2CCOCC2)c(F)c1` [compound 34] yielded a logP under setting [1] of 3.22.

As for `Cc1nc2nc(Cl)c(-c3c(F)cccc3F)c(NCC(C)(C)C)n2n1` [compound 329], the logP under setting [2] is 3.27.

Regarding `Fc1cc(F)c(-c2c(Cl)nc3nc(C4CC4)nn3c2NC2CCCC2)c(F)c1` [compound 463], the logP under setting [2] is 3.9.

In turn, `COCCN(C)c1c(-c2ccc(F)cc2F)c(Cl)nc2nc(C)nn12` [compound 352] returned a logP under setting [2] of 2.58.

For the molecule `CC(=O)NC1CCN(c2c(-c3ccc(F)cc3F)c(Cl)nc3nc(C)nn23)CC1` [compound 294], the logP under setting [2] was determined as 1.85.

In turn, `CNc1c(-c2c(F)cccc2F)c(Cl)nc2nc(C)nn12` [compound 422] gave a logP under setting [2] of 2.03.

As to `CCCN(CCOC)c1c(-c2ccc(F)cc2F)c(Cl)nc2nc(C3CC3)nn12` [compound 602], the logP under setting [1] is on record as 3.84.

Consider `Fc1cc(F)c(-c2c(Cl)nc3nc(C(F)(F)F)nn3c2NCC2CC2)c(F)c1` [compound 111], for which the logP under setting [1] is 3.89. The logP values of the last two molecules are within 0.2 log units of each other.

In the case of `CC1CCCN1c1c(-c2c(F)cc(F)cc2F)c(Cl)nc2nc(C3CC3)nn12` (stereo not shown) [compound 471], under setting [2], the logP was found to be 3.9.

Consider `Cc1nc2nc(F)c(-c3ccccc3Cl)c(NC(C)C(F)(F)F)n2n1` (stereo not shown) [compound 438], for which the logP under setting [2] worked out at 2.97.

Take `C#CCN(C)c1c(-c2ccc(F)cc2F)c(Cl)nc2nc(C)nn12` [compound 351]: the logP under setting [2] is listed as 2.67.

With `CCN(CCOC)c1c(-c2c(F)cc(F)cc2F)c(Cl)nc2nc(C)nn12` [compound 29], the logP under setting [1] came out at 2.93.

As to `Fc1ccc(-c2c(Cl)nc3nc(C4CC4)nn3c2N2CCCCO2)c(F)c1` [compound 690], the log partition coefficient (logP) under setting [1] worked out at 3.56.

In the case of `COCCNc1c(-c2ccccc2Cl)c(Cl)nc2nc(C)nn12` [compound 236], under setting [1], the logP is reported as 2.3.

`CCC1=CCN(c2c(-c3ccc(F)cc3F)c(Cl)nc3nc(C)nn23)CC1` [compound 290]: the logP under setting [2] is given as 3.94.

Molecule `CCOC(=O)CN(CC)c1c(-c2ccc(F)cc2F)c(Cl)nc2nc(C(F)(F)F)nn12` [compound 551] registered a logP under setting [1] of 4.05.

For `Cc1nc2nc(Cl)c(-c3c(F)cc(F)cc3F)c(N3CCCC(C)C3)n2n1` (stereo not shown) [compound 165], the logP under setting [1] is given as 3.9.

With `Cc1nc2nc(Cl)c(-c3ccc(F)cc3F)c(N3CCC4(CC3)OCCO4)n2n1` [compound 284], the log partition coefficient (logP) under setting [2] is 2.68.

Consider `Cc1nc2nc(Cl)c(-c3c(F)cc(F)cc3F)c(N3CCC(F)CC3)n2n1` [compound 167], for which the logP under setting [1] was 3.03.

In the case of `C=C(C)CN(C)c1c(-c2c(F)cccc2F)c(Cl)nc2nc(C)nn12` [compound 337], under setting [2], the log partition coefficient (logP) is recorded as 3.3.

In turn, `Cc1nc2nc(Cl)c(-c3ccc(F)cc3Cl)c(N3CCCCN3)n2n1` [compound 691] had a logP under setting [1] of 2.94.

`Cc1nc2nc(Cl)c(-c3c(F)cccc3F)c(N3CCCCO3)n2n1` [compound 524] yielded a logP under setting [1] of 2.84.

With `CCN(CCOC)c1c(-c2c(F)cccc2Cl)c(Cl)nc2nc(C)nn12` [compound 269], the logP under setting [2] was 3.03.

Consider `CCCN(CC1CC1)c1c(-c2ccc(F)cc2F)c(Cl)nc2nc(C3CC3)nn12` [compound 598], for which the logP under setting [1] is given as 4.53.

Consider `CCCN(CC1CCCO1)c1c(-c2ccccc2Cl)c(Cl)nc2nc(C)nn12` (stereo not shown) [compound 244], for which the logP under setting [1] is 3.7.

Under setting [2], `Fc1ccc(-c2c(Cl)nc3nc(C4CC4)nn3c2N2CCSCC2)c(F)c1` [compound 519] had a logP of 3.58.

Molecule `Cc1nc2nc(Cl)c(-c3ccc(F)cc3F)c(N(C)CC#N)n2n1` [compound 412] returned a logP under setting [2] of 2.34.

Take `Cc1ccc(Nc2c(-c3ccc(F)cc3F)c(Cl)nc3nc(C)nn23)cc1` [compound 298]: under setting [2], the logP was found to be 3.05.

The molecule `N#CCNc1c(-c2c(F)cc(F)cc2F)c(Cl)nc2nc(C(F)(F)F)nn12` [compound 24] showed a logP under setting [1] of 2.91.

As for `CCc1nc2nc(Cl)c(-c3c(F)cc(F)cc3F)c(N3CCCC3)n2n1` [compound 72], the log partition coefficient (logP) under setting [1] was determined as 3.29.

The molecule `CC(C)CC(C)Nc1c(-c2ccc(F)cc2F)c(Cl)nc2nc(C(F)(F)F)nn12` (stereo not shown) [compound 818] registered a logP under setting [1] of 4.73.

Molecule `CC(C)C(C)Nc1c(-c2ccccc2Cl)c(Cl)nc2nc(C3CC3)nn12` (stereo not shown) [compound 579] registered a logP under setting [1] of 4.14.

Consider `COC(=O)C1CCN(c2c(-c3ccc(F)cc3F)c(Cl)nc3nc(C(F)(F)F)nn23)CC1` [compound 803], for which the logP under setting [1] came out at 3.81.

As for `Cc1nc2nc(Cl)c(-c3ccc(F)cc3F)c(NC3CC3)n2n1` [compound 199], the logP under setting [1] stood at 2.45.

Under setting [1], `Cc1nc2nc(Cl)c(-c3c(F)cccc3Cl)c(NC(C)C)n2n1` [compound 256] had a logP of 2.77.

Under setting [1], `CCN(CCN(C)C)c1c(-c2c(F)cccc2F)c(Cl)nc2nc(C)nn12` [compound 567] had a lipophilicity (logP) of 1.46.

Turning to `C=CCONc1c(-c2ccccc2F)c(Cl)nc2nc(C)nn12` [compound 373], the logP under setting [2] worked out at 2.42.

With `Fc1ccc(-c2c(Cl)nc3nc(C(F)(F)F)nn3c2NC2CCC(C(F)(F)F)CC2)c(F)c1` (stereo not shown) [compound 537], the logP under setting [1] is reported as 4.43.

As to `CCCN(CC1CC1)c1c(-c2c(F)cccc2F)c(Cl)nc2nc(C)nn12` [compound 345], under setting [2], the lipophilicity (logP) was found to be 3.83.

In turn, `Fc1ccc(-c2c(Cl)nc3nc(C(F)(F)F)nn3c2NC2CC2)c(F)c1` [compound 531] registered a logP under setting [1] of 3.49.

For the molecule `CCN(CCN(C)C)c1c(-c2c(F)cc(F)cc2F)c(Cl)nc2nc(C)nn12` [compound 156], under setting [1], the logP is recorded as 1.59.

As for `COC(=O)C(Nc1c(-c2c(F)cc(F)cc2F)c(Cl)nc2nc(C)nn12)C(C)C` (stereo not shown) [compound 118], the logP under setting [1] turned out to be 3.11.

As to `CN1CCN(c2c(-c3ccc(F)cc3F)c(Cl)nc3nc(C(F)(F)F)nn23)CC1` [compound 807], under setting [1], the logP was determined as 1.65.

`Cc1nc2nc(Cl)c(-c3c(F)cccc3Cl)c(NCC3CC3)n2n1` [compound 263] showed a lipophilicity (logP) under setting [2] of 2.95.

Under setting [1], `Cc1nc2nc(Cl)c(-c3c(F)cccc3Cl)c(N3CCOCC3)n2n1` [compound 246] displayed a logP of 2.48.

Take `CC(=O)C1CCN(c2c(-c3ccc(F)cc3F)c(Cl)nc3nc(C4CC4)nn23)CC1` [compound 730]: the logP under setting [1] stood at 3.07.

(Values after US7186831B2, “5-halo-2-alkyl[1,2,4]triazolo[1,5-a]pyrimidin-7-amines” (priority 2001, dated 2007).)
